According to patent publication US20250230193A1, “CYCLIC COMPOUND HAVING SELECTIVE KRAS INHIBITORY EFFECT ON HRAS AND NRAS” (CHUGAI SEIYAKU KABUSHIKI KAISHA, priority 2022, published 2025):
Where a SMILES comes first, the peptide text is derived from it. Bridges are numbered along the chain shown (N, C = ends). [ ]: non-standard residue; d: D form. The star is where a group is joined. hPhe(3-Cl-4-CF3) = N[C@@H](CCc1ccc(C(F)(F)F)c(Cl)c1)C(=O)O; NPrPhe(4-CF3) = CCCN[C@@H](Cc1ccc(C(F)(F)F)cc1)C(=O)O; NMeGly(cPent) = CN[C@H](C(=O)O)C1CCCC1; Pro(4,4-F2) = O=C(O)[C@@H]1CC(F)(F)CN1; NMeD = CN[C@@H](CC(=O)O)C(=O)O; NMeL = CN[C@@H](CC(C)C)C(=O)O; Morpholide = C1CN(*)CCO1; Ac5c = NC1(C(=O)O)CCCC1; Aze = O=C(O)[C@@H]1CCN1; Sar = CNCC(=O)O

Experiments:
[1] = biological target: GDP-bound NRAS wild-type protein (Homo sapiens, UniProt P01111); assay: Binding to NRAS by surface plasmon resonance (SPR), Single Cycle Kinetics; settings: SPR
[2] = biological target: GDP-bound HRAS wild-type protein (Homo sapiens, UniProt P01112); assay: Binding to HRAS by surface plasmon resonance (SPR), Single Cycle Kinetics; settings: SPR
Chain of GDP-bound HRAS wild-type protein (P01112 whole entry): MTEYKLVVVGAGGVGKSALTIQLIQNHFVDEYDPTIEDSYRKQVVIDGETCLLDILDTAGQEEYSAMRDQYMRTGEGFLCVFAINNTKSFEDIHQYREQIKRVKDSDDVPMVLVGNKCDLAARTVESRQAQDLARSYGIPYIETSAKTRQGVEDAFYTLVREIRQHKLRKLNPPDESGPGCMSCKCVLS

Chain of GDP-bound NRAS wild-type protein (P01111 whole entry): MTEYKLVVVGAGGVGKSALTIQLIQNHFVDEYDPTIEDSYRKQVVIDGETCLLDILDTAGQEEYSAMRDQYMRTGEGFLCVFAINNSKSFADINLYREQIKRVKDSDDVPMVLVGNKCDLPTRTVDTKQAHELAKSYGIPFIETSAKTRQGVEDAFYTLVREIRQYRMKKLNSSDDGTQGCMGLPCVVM

**Q.** Which “NRAS/KRAS (ratio of KD value with respect to GDP-bound NRAS wild-type protein to KD value with respect to KRAS)” value [1] does the source give for `CC[C@H](C)[C@@H]1NC(=O)[C@H](CC)N(C)C(=O)C[C@@H](C(=O)N(C)C)N(C)C(=O)[C@H](C2CCCC2)N(C)C(=O)C2(CCC2)NC(=O)[C@@H]2C[C@H](N3CCC(F)(F)CC3)CN2C(=O)[C@H](CCc2cc(F)c(C(F)(F)F)c(F)c2)NC(=O)CN(C)C(=O)[C@H](Cc2ccc(C(F)(F)F)cc2)N2CCCC[C@@H](C2=O)N(C)C(=O)CN(C)C1=O` [PP0732] here?
**A.** C (A compound having a KD ratio of 0.1 or more and less than 3 is denoted as C)

**Q.** And the “HRAS/KRAS (ratio of KD value with respect to GDP-bound HRAS wild-type protein to KD value with respect to KRAS)” value [2]?
**A.** B (a compound having 3 or more and less than 10 is denoted as B)

**Q.** What does the source list for `CCCN(C)C(=O)[C@@H]1CC(=O)N(C)[C@@H](CC2CCC2)C(=O)N[C@@H]([C@@H](C)CC)C(=O)N(C)CC(=O)N(C)[C@H]2C/C=C\CCN(C2=O)[C@@H](Cc2ccc(C(F)(F)F)cc2)C(=O)N(C)CC(=O)N[C@@H](CCc2cc(F)c(C(F)(F)F)c(F)c2)C(=O)N2C[C@H](OCC)C[C@H]2C(=O)NC2(CCC2)C(=O)N(C)[C@@H](C2CCCC2)C(=O)N1C` [PP1705]?
**A.** NRAS/KRAS (ratio of KD value for NRAS to KD value for KRAS) ([1]; KD ratio, GDP-bound NRAS wild-type vs GDP-bound KRAS wild-type): AA (a compound having 20 or more is denoted as AA); HRAS/KRAS (ratio of KD value for HRAS to KD value for KRAS) ([2]; KD ratio, GDP-bound HRAS wild-type vs GDP-bound KRAS wild-type): A (a compound having 10 or more and less than 20 is denoted as A)

**Q.** `C#CCN1CC(=O)N(C)[C@H]2C/C=C\CCN(C2=O)[C@@H](Cc2ccc(C)cc2)C(=O)N(C)CC(=O)N[C@@H](CCc2ccc(C(F)(F)F)c(OC)c2)C(=O)N2C[C@H](OCC)C[C@H]2C(=O)NC2(CC(C)(C)C2)C(=O)N(C)[C@@H](C2CCCC2)C(=O)N(C)[C@H](C(=O)N(C)C)CC(=O)N(C)[C@@H](CCC)C(=O)N[C@@H]([C@@H](C)CC)C1=O` [PP2099] was tested. Which “NRAS/KRAS (ratio of KD value with respect to NRAS to KD value with respect to KRAS)” value ([1]; GDP-bound NRAS wild-type vs GDP-bound KRAS wild-type) did it give?
**A.** A (a compound having 10 or more and less than 20 is denoted as A)

**Q.** What about the “HRAS/KRAS (ratio of KD value with respect to HRAS to KD value with respect to KRAS)” value ([2]; GDP-bound HRAS wild-type vs GDP-bound KRAS wild-type) of the same compound?
**A.** A (a compound having 10 or more and less than 20 is denoted as A)

**Q.** Which “NRAS/KRAS (ratio of KD value with respect to GDP-bound NRAS wild-type protein to KD value with respect to KRAS)” value [1] does the source give for `CC[C@H](C)[C@@H]1NC(=O)[C@H](CC(C)C)N(CC)C(=O)C[C@@H](C(=O)N2CCOCC2)N(C)C(=O)[C@H](C2CCCC2)N(C)C(=O)C2(CCCC2)NC(=O)[C@@H]2CCCN2C(=O)[C@H](CCc2cc(F)c(C(F)(F)F)c(F)c2)NC(=O)CN(C)C(=O)[C@H](Cc2ccc(C(F)(F)F)cc2)N2CCCCC[C@@H](C2=O)N(C)C(=O)CN(C)C1=O` [PP0513] here?
**A.** B (a compound having 3 or more and less than 10 is denoted as B)

**Q.** And the “HRAS/KRAS (ratio of KD value with respect to GDP-bound HRAS wild-type protein to KD value with respect to KRAS)” value [2]?
**A.** B (a compound having 3 or more and less than 10 is denoted as B)

**Q.** Which “NRAS/KRAS (ratio of KD value with respect to GDP-bound NRAS wild-type protein to KD value with respect to KRAS)” value [1] does the source give for `CCO[C@@H]1C[C@H]2C(=O)NC3(CCC3)C(=O)N(C)[C@@H](C3CCCC3)C(=O)N(C)[C@H](C(=O)N3CCOCC3)CC(=O)N(C)C[C@@H](C)C(=O)N[C@@H]([C@@H](C)CC)C(=O)N(C)CC(=O)N(C)[C@H]3CCCCN(C3=O)[C@@H](Cc3ccc(C(F)(F)F)cc3)C(=O)N(C)CC(=O)N[C@@H](CCc3cc(F)c(C(F)(F)F)c(F)c3)C(=O)N2C1` [PP0721] here?
**A.** B (a compound having 3 or more and less than 10 is denoted as B)

**Q.** And the “HRAS/KRAS (ratio of KD value with respect to GDP-bound HRAS wild-type protein to KD value with respect to KRAS)” value [2]?
**A.** B (a compound having 3 or more and less than 10 is denoted as B)

**Q.** Which “NRAS/KRAS (ratio of KD for GDP-bound NRAS wild-type to KD for KRAS)” value [1] does the source give for `CCCN1C(=O)[C@@H]2CCN2C(=O)[C@H](C)NC(=O)[C@H]([C@@H](C)CC)NC(=O)[C@H](CC(C)C)N(C)C(=O)C[C@@H](C(=O)N2CCOCC2)N(C)C(=O)[C@H](C2CCCC2)N(C)C(=O)C2(CCCC2)NC(=O)[C@@H]2CCCN2C(=O)[C@H](CCc2ccc(C(F)(F)F)c(Cl)c2)NC(=O)CN(C)C(=O)[C@@H]1Cc1ccc(C(F)(F)F)cc1` [PP0078] ([NMeL]IA[Aze][NPrPhe(4-CF3)][Sar][hPhe(3-Cl-4-CF3)]P[Ac5c][NMeGly(cPent)][NMeD]-Morpholide; lactam N-11) here?
**A.** C (A compound having a KD ratio of 0.1 or more and less than 3 is denoted as C)

**Q.** And the “HRAS/KRAS (ratio of KD for GDP-bound HRAS wild-type to KD for KRAS)” value [2]?
**A.** B (a compound having 3 or more and less than 10 is denoted as B)

**Q.** Which “NRAS/KRAS (ratio of KD for GDP-bound NRAS wild-type to KD for KRAS)” value [1] does the source give for `CCCN1C(=O)CN(C)C(=O)[C@@H]2CCN2C(=O)[C@H]([C@@H](C)CC)NC(=O)[C@H](CC(C)C)N(C)C(=O)C[C@@H](C(=O)N2CCOCC2)NC(=O)[C@H](C2CCCC2)N(C)C(=O)C2(CCCC2)NC(=O)[C@@H]2CC(F)(F)CN2C(=O)[C@H](CCc2ccc(C(F)(F)F)c(Cl)c2)NC(=O)CN(C)C(=O)[C@@H]1Cc1ccc(C(F)(F)F)cc1` [PP0339] ([NMeL]I[Aze][Sar][NPrPhe(4-CF3)][Sar][hPhe(3-Cl-4-CF3)][Pro(4,4-F2)][Ac5c][NMeGly(cPent)]D-Morpholide; lactam N-11) here?
**A.** B (a compound having 3 or more and less than 10 is denoted as B)

**Q.** And the “HRAS/KRAS (ratio of KD for GDP-bound HRAS wild-type to KD for KRAS)” value [2]?
**A.** B (a compound having 3 or more and less than 10 is denoted as B)
